From publication PMC5645021 (Organic letters, 2014) come the findings set out here.

As usually defined, the IC50 is the point on the concentration scale where inhibition reaches its midpoint.

What all share (assay type): cell-based
The subject of one series is SW620 Ad300. Briefly: MTT cytotoxicity, SW620 Ad300. As to conditions: for IC50: read-out: MTT cytotoxicity SW620 Ad300 IC50, P-gp overexpressing daughter cell line SW620 Ad300; for FR (fold resistance), control study: SW620 Ad300 versus SW620; for FR (fold resistance): IC50 ratio for SW620 Ad300 versus SW620.
The target of series [1] is oncogenic mutant K-Ras (mGFP-K-RasG12 V) (Homo sapiens, UniProt P01116, G12V). Briefly: K-Ras PM mislocalization. The following applies: for K-Ras PM mislocalization Emax: maximum extent of mislocalization of K-Ras from the PM to the endomembrane, MDCK cells; for IC50: read-out: K-Ras PM mislocalization IC50, mGFP-K-RasG12V in intact MDCK cells.
Another series concerns SW620. Description: MTT cytotoxicity, SW620. The following applies: read-out: MTT cytotoxicity SW620 IC50; colon cancer cell line SW620.
The next series has as its system A549 versus H522. Briefly: Cytotoxicity toward K-Ras mutated versus non-mutated lung cancer cells. The following applies: human lung cancer cells.

Chain of oncogenic mutant K-Ras (mGFP-K-RasG12 V) (P01116 1-188 isoform P01116-2 G12V): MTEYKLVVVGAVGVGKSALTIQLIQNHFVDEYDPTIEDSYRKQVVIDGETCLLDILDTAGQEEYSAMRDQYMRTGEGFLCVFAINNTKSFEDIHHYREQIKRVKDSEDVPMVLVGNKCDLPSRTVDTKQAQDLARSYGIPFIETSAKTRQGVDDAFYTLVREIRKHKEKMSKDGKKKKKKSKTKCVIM

Regarding `CCC(C)C1OC(=O)C(NC(=O)c2cccc(NC=O)c2O)C(C)OC(=O)C(C(C)CC)OC(=O)C(C)(C)C(O)C(Cc2ccccc2)OC1=O` (stereo not drawn) [compound 3, neoantimycin G], the IC50 in the series on SW620 Ad300 was 260 nM; in series [1], 7.9 ± 0.5 nM; in the series with SW620 it was 40 nM. Moreover, the “K-Ras PM mislocalization Emax” value in series [1] was found to be 0.62 ± 0.01.
As for `COc1cccc2c1C(=O)c1c(O)c3c(c(O)c1C2=O)C[C@@](O)(C(=O)CO)C[C@@H]3O[C@H]1C[C@H](N)[C@H](O)[C@H](C)O1` [doxorubicin], the “FR (fold resistance), control study” value in the series on SW620 Ad300 (coadministration with the P-gp inhibitor verapamil) was 2.4; in the series on SW620 Ad300 (doxorubicin alone), 22.
Regarding `CCC(C)[C@@H]1OC(=O)[C@H](C)OC(=O)[C@@H](NC(=O)c2cccc(NC=O)c2O)[C@@H](C)OC(=O)[C@H](CC(C)C)OC(=O)C(C)(C)C(=O)[C@H](CC(C)C)NC1=O` (stereo partly drawn) [compound 7, respirantin, reference compound], the “increased cytotoxicity toward K-Ras mutated A549 versus non-mutated H522” value with A549 versus H522 is more than 33 fold. Moreover, the “FR (fold resistance)” value in the series with SW620 Ad300 was 3.0. Also, the results for the IC50 (with SW620 Ad300; in series [1]; in the series on SW620) were 30 nM, 0.7 ± 0.1 nM and 10 nM, respectively. Moreover, the “K-Ras PM mislocalization Emax” value in series [1] turned out to be 0.78 ± 0.02.
In the case of `CC[C@H](C)[C@@H]1OC(=O)C(C)(C)C(=O)[C@@H](Cc2ccccc2)OC(=O)[C@H](C(C)C)OC(=O)[C@@H](NC(=O)c2cccc(NC=O)c2O)[C@@H](C)OC1=O` [compound 4, neoantimycin H], in the series on SW620 Ad300, the “FR (fold resistance)” value was 2.7. For the same compound, the IC50 was 190 nM in the series on SW620 Ad300, 6.4 ± 0.5 nM in series [1] and 70 nM with SW620. For the same compound, the “K-Ras PM mislocalization Emax” value in series [1] is reported as 0.60 ± 0.02.
For `CC(C)[C@@H]1OC(=O)[C@@H](NC(=O)c2cccc(NC=O)c2O)[C@H](C)OC(=O)[C@H](C(C)C)OC(=O)C(C)(C)[C@@H](O)[C@@H](Cc2ccccc2)OC1=O` [compound 2, neoantimycin F] the same measures were 3.8, 610 nM, 9.9 ± 0.2 nM, 160 nM and 0.56 ± 0.01.
With `CC[C@H](C)[C@@H]1OC(=O)C(C)(C)[C@@H](O)[C@@H](Cc2ccccc2)OC(=O)[C@H](C(C)C)OC(=O)[C@@H](NC(=O)c2cccc(NC=O)c2O)[C@H](C)OC1=O` [compound 1, neoantimycin], the “increased cytotoxicity toward K-Ras mutated A549 versus non-mutated H522” value with A549 versus H522 worked out at 50 fold. In addition, in the series on SW620 Ad300, the “FR (fold resistance)” value was 3.8 and the IC50 amounted to 230 nM. Further, in series [1], the “K-Ras PM mislocalization Emax” value stood at 0.60 ± 0.03 and the IC50 turned out to be 2.9 ± 0.7 nM. In addition, in the series on SW620, the IC50 came to 60 nM.
Turning to `CCCCCC[C@H]1C(=O)O[C@H](C)[C@H](NC(=O)c2cccc(NC=O)c2O)C(=O)O[C@@H](C)[C@@H]1OC(=O)C(C)C` [compound 5, antimycin A2a, reference compound], in the series on A549 versus H522, the “increased cytotoxicity toward K-Ras mutated A549 versus non-mutated H522” value is on record as more than 26 fold. In the series on SW620 Ad300, the “FR (fold resistance)” value is 2.1 and the IC50 came to 320 nM. In addition, in series [1], the “K-Ras PM mislocalization Emax” value came out at 0.78 ± 0.02 and the IC50 was found to be 7.9 ± 0.3 nM. Moreover, the IC50 in the series on SW620 stood at 150 nM.
Regarding `CCCC[C@H]1C(=O)O[C@H](C)[C@H](NC(=O)c2cccc(NC=O)c2O)C(=O)O[C@@H](C)[C@@H]1OC(=O)C(C)C` [compound 6, antimycin A4a, reference compound], in the series on SW620 Ad300, the “FR (fold resistance)” value stood at 3.7 and the IC50 is 440 nM. In series [1], the “K-Ras PM mislocalization Emax” value was found to be 0.79 ± 0.02 and the IC50 came to 3.7 ± 0.3 nM. Also, in the series with SW620, the IC50 is 120 nM.
